Test results from ChEMBL document CHEMBL4418283, “Fluorinated lysyl oxidase-like 2 inhibitors and uses thereof” (2017).
Calls of active or inactive are those of the source. The calls are words filed in the database; no cut-off is given here.

Tests used:
[1] = tested on: Mus musculus; assay: Antifibrotic activity in C57BL/6 mouse model of bleomycin-induced lung fibrosis assessed as reduction in hydroxyproline in lung homogenates at 60 mg/kg, po treated 7 to 14 days after bleomycin injection and measured after 14 to 28 days by chloramine T and Erlich's solution based assay; type: functional, organism-based
[2] = tested on: Mus musculus; assay: Antifibrotic activity in C57BL/6 mouse model of bleomycin-induced lung fibrosis assessed as reduction in collagen level in lung at 60 mg/kg, po treated 7 to 14 days after bleomycin injection and measured after 14 to 28 days by hydroxyproline assay; type: functional, organism-based
[3] = tested on: Mus musculus; assay: Antifibrotic activity in C57BL/6 mouse model of bleomycin-induced lung fibrosis assessed as reduction in collagen level in lung at 60 mg/kg, po pre-treated 1 hr to 1 day before bleomycin injection and measured after 14 to 28 days by hydroxyproline assay; type: functional, organism-based
[4] = tested on: Mus musculus; assay: Antifibrotic activity in C57BL/6 mouse model of bleomycin-induced lung fibrosis assessed as reduction in cross linked collagen level in lung at 60 mg/kg, po pre-treated 1 hr to 1 day before bleomycin injection and measured after 14 to 28 days by Picro-Sirius staining based assay; type: functional, organism-based
[5] = tested on: Mus musculus; assay: Antifibrotic activity in C57BL/6 mouse model of bleomycin-induced lung fibrosis assessed as reduction in alpha smooth muscle actin level in lung at 60 mg/kg, po pre-treated 1 hr to 1 day before bleomycin injection and measured after 14 to 28 days by immunohistochemistry analysis; type: functional, organism-based
[6] = tested on: Mus musculus; assay: Antifibrotic activity in C57BL/6 mouse model of bleomycin-induced lung fibrosis assessed as reduction in alpha smooth muscle actin level in lung at 60 mg/kg, po treated 7 to 14 days after bleomycin injection and measured after 14 to 28 days by immunohistochemistry analysis; type: functional, organism-based
[7] = tested on: Mus musculus; assay: Antifibrotic activity in C57BL/6 mouse model of bleomycin-induced lung fibrosis assessed as reduction in hydroxyproline in lung homogenates at 60 mg/kg, po pre-treated 1 hr to 1 day before bleomycin injection and measured after 14 to 28 days by chloramine T and Erlich's solution based assay; type: functional, organism-based
[8] = tested on: Mus musculus; assay: Antifibrotic activity in C57BL/6 mouse model of bleomycin-induced lung fibrosis assessed as reduction in cross linked collagen level in lung at 60 mg/kg, po pre-treated 1 hr to 1 day before bleomycin injection and measured after 14 to 28 days by Masson's trichrome staining based assay; type: functional, organism-based
[9] = tested on: Mus musculus; assay: Antifibrotic activity in C57BL/6 mouse model of bleomycin-induced lung fibrosis assessed as reduction in cross linked collagen level in lung at 60 mg/kg, po treated 7 to 14 days after bleomycin injection and measured after 14 to 28 days by Masson's trichrome staining based assay; type: functional, organism-based
[10] = tested on: Mus musculus; assay: Antifibrotic activity in C57BL/6 mouse model of bleomycin-induced lung fibrosis assessed as reduction in cross linked collagen level in lung at 60 mg/kg, po treated 7 to 14 days after bleomycin injection and measured after 14 to 28 days by Picro-Sirius staining based assay; type: functional, organism-based
[11] = molecular target: T1, Lysyl oxidase homolog 2 (Homo sapiens, UniProt Q9Y4K0); assay: Inhibition of human LOXL2 expressed in CHO cells assessed as reduction in amine oxidase activity incubated for 2 hrs by Amplex red based fluorescence assay; type: cell-based
T1 sequence (Q9Y4K0 whole entry): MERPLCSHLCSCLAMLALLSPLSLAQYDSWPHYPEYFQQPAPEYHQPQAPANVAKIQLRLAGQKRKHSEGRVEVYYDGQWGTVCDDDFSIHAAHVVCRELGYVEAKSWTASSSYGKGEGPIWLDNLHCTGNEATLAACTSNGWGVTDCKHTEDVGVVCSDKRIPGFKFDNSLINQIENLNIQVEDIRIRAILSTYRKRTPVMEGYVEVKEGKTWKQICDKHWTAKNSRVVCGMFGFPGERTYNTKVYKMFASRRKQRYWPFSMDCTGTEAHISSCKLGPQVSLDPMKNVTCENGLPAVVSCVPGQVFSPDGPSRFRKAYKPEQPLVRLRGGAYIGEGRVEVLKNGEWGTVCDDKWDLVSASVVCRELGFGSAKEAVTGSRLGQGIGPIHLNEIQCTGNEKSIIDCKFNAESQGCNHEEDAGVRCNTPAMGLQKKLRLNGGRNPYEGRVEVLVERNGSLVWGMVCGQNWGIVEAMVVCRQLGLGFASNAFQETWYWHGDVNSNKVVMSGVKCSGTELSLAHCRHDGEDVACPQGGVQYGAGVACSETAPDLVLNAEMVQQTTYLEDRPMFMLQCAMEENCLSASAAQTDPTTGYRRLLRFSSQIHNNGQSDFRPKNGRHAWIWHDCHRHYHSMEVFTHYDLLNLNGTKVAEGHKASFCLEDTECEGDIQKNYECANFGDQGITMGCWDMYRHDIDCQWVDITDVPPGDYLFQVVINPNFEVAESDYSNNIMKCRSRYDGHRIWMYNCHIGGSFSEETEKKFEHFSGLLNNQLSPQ

[12] = tested on: Mus musculus; assay: Antifibrotic activity in COL4A3 deficient mouse A1port model of kidney fibrosis assessed as effect on laminin a5 protein expression at 30 mg/kg, po dosed during 2 to 3 days of age and measured at 7 to 9 weeks of age by immunohistochemical analysis; type: functional, organism-based
[13] = tested on: Mus musculus; assay: Antifibrotic activity in COL4A3 deficient mouse A1port model of kidney fibrosis assessed as effect on IL6 gene expression at 30 mg/kg, po dosed during 2 to 3 days of age and measured at 7 to 9 weeks of age by RT-PCR analysis; type: functional, organism-based
[14] = tested on: Mus musculus; assay: Antifibrotic activity in COL4A3 deficient mouse A1port model of kidney fibrosis assessed as effect on collagen-1 protein expression at 30 mg/kg, po dosed during 2 to 3 days of age and measured at 7 to 9 weeks of age by immunohistochemical analysis; type: functional, organism-based
[15] = tested on: Mus musculus; assay: Antifibrotic activity in COL4A3 deficient mouse A1port model of kidney fibrosis assessed as effect on fibronectin protein expression at 30 mg/kg, po dosed during 2 to 3 days of age and measured at 7 to 9 weeks of age by immunohistochemical analysis; type: functional, organism-based
[16] = tested on: Mus musculus; assay: Antifibrotic activity in COL4A3 deficient mouse A1port model of kidney fibrosis assessed as effect on CD45 protein expression at 30 mg/kg, po dosed during 2 to 3 days of age and measured at 7 to 9 weeks of age by immunohistochemical analysis; type: functional, organism-based
[17] = tested on: Mus musculus; assay: Antifibrotic activity in COL4A3 deficient mouse A1port model of kidney fibrosis assessed as effect on MMP10 gene expression at 30 mg/kg, po dosed during 2 to 3 days of age and measured at 7 to 9 weeks of age by RT-PCR analysis; type: functional, organism-based
[18] = tested on: Mus musculus; assay: Antifibrotic activity in COL4A3 deficient mouse A1port model of kidney fibrosis assessed as effect on CTGF gene expression at 30 mg/kg, po dosed during 2 to 3 days of age and measured at 7 to 9 weeks of age by RT-PCR analysis; type: functional, organism-based
[19] = tested on: Mus musculus; assay: Antifibrotic activity in COL4A3 deficient mouse A1port model of kidney fibrosis assessed as effect on MMP12 gene expression at 30 mg/kg, po dosed during 2 to 3 days of age and measured at 7 to 9 weeks of age by RT-PCR analysis; type: functional, organism-based
[20] = tested on: Mus musculus; assay: Antifibrotic activity in COL4A3 deficient mouse A1port model of kidney fibrosis assessed as effect on collagen 1 protein expression at 30 mg/kg, po dosed during 2 to 3 days of age and measured at 7 to 9 weeks of age by immunohistochemical analysis; type: functional, organism-based
[21] = tested on: Mus musculus; assay: Antifibrotic activity in COL4A3 deficient mouse A1port model of kidney fibrosis assessed as effect on BUN level at 30 mg/kg, po dosed during 2 to 3 days of age and measured at 7 to 9 weeks of age; type: functional, organism-based
[22] = tested on: Mus musculus; assay: Antifibrotic activity in COL4A3 deficient mouse A1port model of kidney fibrosis assessed as effect on TGFbeta1 gene expression at 30 mg/kg, po dosed during 2 to 3 days of age and measured at 7 to 9 weeks of age by RT-PCR analysis; type: functional, organism-based
[23] = tested on: Mus musculus; assay: Antifibrotic activity in COL4A3 deficient mouse A1port model of kidney fibrosis assessed as effect on albinuria level at 30 mg/kg, po dosed during 2 to 3 days of age and measured at 7 to 9 weeks of age; type: functional, organism-based
[24] = tested on: Mus musculus; assay: Antifibrotic activity in COL4A3 deficient mouse A1port model of kidney fibrosis assessed as effect on MCP1 gene expression at 30 mg/kg, po dosed during 2 to 3 days of age and measured at 7 to 9 weeks of age by RT-PCR analysis; type: functional, organism-based
[25] = tested on: Mus musculus; assay: Antifibrotic activity in COL4A3 deficient mouse A1port model of kidney fibrosis assessed as effect on MMP2 gene expression at 30 mg/kg, po dosed during 2 to 3 days of age and measured at 7 to 9 weeks of age by RT-PCR analysis; type: functional, organism-based
[26] = tested on: Mus musculus; assay: Antifibrotic activity in COL4A3 deficient mouse A1port model of kidney fibrosis assessed as effect on integrin alpha8 protein expression at 30 mg/kg, po dosed during 2 to 3 days of age and measured at 7 to 9 weeks of age by immunohistochemical analysis; type: functional, organism-based
[27] = tested on: Mus musculus; assay: Antifibrotic activity in COL4A3 deficient mouse A1port model of kidney fibrosis assessed as effect on MMP9 gene expression at 30 mg/kg, po dosed during 2 to 3 days of age and measured at 7 to 9 weeks of age by RT-PCR analysis; type: functional, organism-based
[28] = tested on: Mus musculus; assay: Antifibrotic activity in COL4A3 deficient mouse A1port model of kidney fibrosis assessed as effect on WT1 protein expression at 30 mg/kg, po dosed during 2 to 3 days of age and measured at 7 to 9 weeks of age by immunohistochemical analysis; type: functional, organism-based
[29] = tested on: Mus musculus; assay: Antifibrotic activity in COL4A3 deficient mouse A1port model of kidney fibrosis assessed as effect on smooth muscle actin protein expression at 30 mg/kg, po dosed during 2 to 3 days of age and measured at 7 to 9 weeks of age by immunohistochemical analysis; type: functional, organism-based

Row | SMILES | Activity [1] | Activity [2] | Activity [3] | Activity [4] | Activity [5] | Activity [6] | Activity [7] | Activity [8] | Activity [9] | Activity [10] | also measured
1 | NCc1cc(Oc2cccc(C(=O)N3C[C@H](O)[C@@H](F)C3)c2)nc(C(F)(F)F)c1 (relative stereo) | Active | Active | Active | Active | Active | Active | Active | Active | Active | Active | 
2 | NCc1cc(O[C@@H]2CCCN(C(=O)Nc3ccccc3)C2)nc(C(F)(F)F)c1 |  |  |  |  |  |  |  |  |  |  | IC50 [11]: 300 to 1000 nM
3 | CC(C)(C)OC(=O)N1CCN(C(=O)Cn2ccc3c(Oc4cc(CN)cc(C(F)(F)F)n4)cccc32)CC1 |  |  |  |  |  |  |  |  |  |  | IC50 [11]: < 300 nM
4 | CS(=O)(=O)CCNC(=O)c1cccc(Oc2cc(CN)cc(C(F)(F)F)n2)c1 |  |  | Active | Active | Active |  | Active | Active |  |  | 
5 | NCc1cc(Oc2cccc(C(=O)NCCn3cnnn3)c2)nc(C(F)(F)F)c1 |  |  | Active | Active | Active |  | Active | Active |  |  | 
6 | NCc1cc(Oc2cccc3c2CCC(=O)N3)nc(C(F)(F)F)c1 |  |  | Active | Active | Active |  | Active | Active |  |  | 
7 | NCc1cc(Oc2cccc(C(=O)N3C[C@H](O)[C@@H](F)C3)c2)nc(C(F)(F)F)c1 (racemic) | Active | Active | Active | Active | Active | Active | Active | Active | Active | Active | 
8 | NCc1cc(Oc2cccc(C(=O)Nc3ccccc3)c2)nc(C(F)(F)F)c1 |  |  | Active | Active | Active |  | Active | Active |  |  | 
9 | NCc1cc(Oc2cccc(C(=O)N3C[C@@H](O)[C@H](F)C3)c2)nc(C(F)(F)F)c1 | Active | Active | Active | Active | Active | Active | Active | Active | Active | Active | Activity [12]: Active; Activity [13]: Active; Activity [14]: Active; Activity [15]: Active; Activity [16]: Active; Activity [17]: Active; Activity [18]: Active; Activity [19]: Active; Activity [20]: Active; Activity [21]: Active; Activity [22]: Active; Activity [23]: Active; Activity [24]: Active; Activity [25]: Active; Activity [26]: Active; Activity [27]: Active; Activity [28]: Active; Activity [29]: Active
